Laboratory results: US20240358015A1, “HERBICIDAL COMPOSITIONS” (Agrematch Ltd., priority 2021, published 2024)

Assays:
[1] = system: X. strumarium; assay: Growth-chamber post-emergence assay on various weed species (Example 7); format: in vivo, Xanthium strumarium; conditions: 1500 g/ha; 0.8% MIPA, 0.25% Genapol, 2% HASTEN, 0.05% Break-Thru
Description: (§1) Herbicidal activity of Compound 1 was determined by post-emergence application on various weed species. 8-14 day old plants (weeds) were grown at 16 hours/8 hours day/night cycles at 30° C./25° C., respectively. Leaf stage was typically 2-6.
(§2) In each treatment, 3 pots (either 7×7 or 8×12 cm), containing about 3-6 plants each, were sprayed using a VL-SET Paasche Airbrush with a 1-1.5 ml-solution containing 0.5-1.5 mg/ml of the tested compound, which is equivalent to about 500-1500 g/ha.
(§3) Damage assessment: Herbicidal activity was assessed and scored 3-4 days after application by visual inspection of the plants in comparison to plants treated with the formulation alone (with no active ingredient) as control. Activity score is in the range of 0 to 100, where 0 represents no herbicidal activity like control plants and 100 represents the maximal herbicidal activity (i.e., total death of the plant).

[2] = system: Resistant A. rudis (target-site resistant to HRAC class 5); assay: Growth-chamber assay with resistant weeds (Example 9); format: in vivo, Amaranthus rudis; conditions: 2,000 g/ha, 4-5 days after application, scale 0-100
Description: (§4) Herbicidal activity of Compound 1 was determined by post-emergence application in both Growth-chamber and Net-house conditions. Growing conditions were as described in Examples 6 and 8 above.
(§5) The assay was performed on 9-11 day old plants (weeds) of Amaranthus rudis that were either target-site resistant or sensitive to HRAC class 5. In each treatment, between 1 to 3 pots (8×12 cm), containing about 6 Amaranthus Rudis plants, were sprayed using a VL-SET Paasche Airbrush with a 1 ml-solution.
as §3, with “4-5” for “3-4”

[3] = system: Sensitive A. rudis; assay: as above; format: in vivo, Amaranthus rudis; conditions: 2,000 g/ha, 4-5 days after application, scale 0-100
Description: as §4, §5
as §3, with “4-5” for “3-4”

[4] = system: L. multiflorum; assay: Growth-chamber post-emergence assay on various weed species (Example 7); format: in vivo, Lolium multiflorum; conditions: 1500 g/ha; 0.8% MIPA, 0.25% Genapol, 2% HASTEN, 0.05% Break-Thru
Description: as §1, §2, §3

[5] = system: A. retroflexus; assay: as above; format: in vivo; conditions: 500 g/ha; 0.8% MIPA, 0.25% Genapol, 1% AGNIQUE, 0.05% Ca-LAS, 0.02% BSU, 0.05% Break-Thru
Description: as §1, §2, §3

[6] = system: D. ferox; assay: as above; format: in vivo; conditions: 1500 g/ha; 0.8% MIPA, 0.25% Genapol, 2% HASTEN, 0.05% Break-Thru
Description: as §1, §2, §3

[7] = system: T. vulgare; assay: as above; format: in vivo; conditions: 500 g/ha; 0.8% MIPA, 0.25% Genapol, 1% AGNIQUE, 0.05% Ca-LAS, 0.02% BSU, 0.05% Break-Thru
Description: as §1, §2, §3

[8] = system: S. alba; assay: as above; format: in vivo; conditions: 500 g/ha; 0.8% MIPA, 0.25% Genapol, 1% AGNIQUE, 0.05% Ca-LAS, 0.02% BSU, 0.05% Break-Thru
Description: as §1, §2, §3

[9] = system: Amaranthus palmeri; assay: Net-house post-emergence assay (Example 6); format: in vivo; conditions: 750 g/ha, 0.05% MIPA
Description: Post-emergence herbicidal activity was tested on Amaranthus palmeri weeds species that were grown in a net-house. Average daily minimum and maximum temperatures during the assay were 20.5° C./[…], respectively. Leaf stage at the time of application was 3-4. In each treatment, 3 flowerpots (7 cm×7 cm×6 cm) containing about 3-6 plants, were sprayed using a VL-SET Paasche Airbrush with a […] 0.75 mg/ml of the tested compound, which is equivalent to 750 g/ha.
as §3, with “1-12” for “3-4”

[10] = system: A. palmeri; assay: Greenhouse post-emergence assay (Example 3); format: in vivo, Amaranthus palmeri; conditions: 4% TWEEN 20, 0.05 M Tris buffer pH 8, 0.05% Break-Thru
Description: Plant seeds were sowed in 9 cm×9 cm×10 cm flowerpots. Timing of sowing (days before treatment application) for each plant is detailed in Table 7 below. 5 flowerpots of each species were used for each treatment. Seeds were sowed in wet clay soil and then covered with about 1 cm layer of dry clay soil.
Irrigation: Irrigation was carried out using VIBRONET-UD (NETAFIM) sprinklers hanging upside down one meter above the flowerpots. Water flow capacity-50 liters per hour. Irrigation was carried out three times a day for 10 minutes.
Treatments: Table 8 presents generally the protocols of the various treatments used in these assays.
(§6) 57.6 ml of 0.05 M Tris buffer pH=8 were added to 150 mg of Compound 1 and the mixture was stirred using a magnetic stirrer. 2.4 ml of TWEEN®20 were added and the mixture was stirred using a magnetic stirrer to obtain a 4% TWEEN®20-containing solution. 30 μl of Break-Thru were added to obtain a 0.05% Break-Thru-containing solution.
as §6, with “225” for “150”
Plants were sprayed using a DeVreis Generation 4 Research Track Sprayer with a TEE JET nozzle 80015EVS. Spraying volume was 200 L/ha using the following sprayer parameters: • Spray speed-2 KMH • Spray length-1.50 m • Spray pressure-42 PSI
Each plant was sprayed twice, yielding a total spraying volume of 400 L/ha. Nozzle was located 55 cm above pots ground level.
A. palmeri, S. viridis and S. nigrum plants were elevated with 8 cm tray, Z. mays plants were elevated with 3 cm tray in order to achieve a similar spraying height for all plant's foliage.
Plants were scored by visual inspection of symptoms, on a scale of 0-100, where 0 represents no herbicidal activity like control plants and 100 represents the maximal herbicidal activity (i.e., total death of the plant). Each pot was scored separately. DAT=days after treatment

[11] = system: A. theophrasti; assay: Growth-chamber post-emergence assay on various weed species (Example 7); format: in vivo, Abutilon theophrasti; conditions: 1500 g/ha; 0.8% MIPA, 0.25% Genapol, 2% HASTEN, 0.05% Break-Thru
Description: as §1, §2, §3

O=C(O)c1cc(O)c2c(c1)C(=O)c1cccc(O)c1C2=O [Compound 1, Rhein]
Herbicidal activity score [1]: 90 | Herbicidal activity score [2]: 100 | Herbicidal activity score [3]: 100 | Herbicidal activity score [4]: 50 | Herbicidal activity score [5]: 85 | Herbicidal activity score [6]: 95 | Herbicidal activity score [7]: 10 | Herbicidal activity score [8]: 80 | Herbicidal activity score ([9]; 2% Hasten, 0.05% Break-Thru, 1 DAT): 95 | Herbicidal activity score ([9]; 2% Hasten, 0.05% Break-Thru, 3 DAT): 95 | Herbicidal activity score ([9]; 2% Hasten, 0.05% Break-Thru, 5 DAT): 90 | Herbicidal activity score ([9]; 2% Hasten, 0.05% Break-Thru, 7 DAT): 90 | Herbicidal activity score ([9]; 2% Hasten, 0.05% Break-Thru, 12 DAT): 80 | Herbicidal activity score ([9]; 2% TWEEN20, 0.05% Break-Thru, 1 DAT, scale 0-100): 95 | Herbicidal activity score ([9]; 2% TWEEN20, 0.05% Break-Thru, 3 DAT): 100 | Herbicidal activity score ([9]; 2% TWEEN20, 0.05% Break-Thru, 5 DAT): 100 | Herbicidal activity score ([9]; 2% TWEEN20, 0.05% Break-Thru, 7 DAT): 100 | Herbicidal activity score ([9]; 2% TWEEN20, 0.05% Break-Thru, 12 DAT): 100 | Score by visual inspection of symptoms (average ± standard deviation, 5 pots) ([10]; 1000 g/ha (2.5 mg/ml, 400 L/ha), 1 DAT, scale 0-100): 22 ± 13 | Score by visual inspection of symptoms (average ± standard deviation, 5 pots) ([10]; 1000 g/ha (2.5 mg/ml, 400 L/ha), 3 DAT): 54 ± 11.4 | Score by visual inspection of symptoms (average ± standard deviation, 5 pots) ([10]; 1000 g/ha (2.5 mg/ml, 400 L/ha), 6 DAT): 36 ± 8.9 | Score by visual inspection of symptoms (average ± standard deviation, 5 pots) ([10]; 1000 g/ha (2.5 mg/ml, 400 L/ha), 8 DAT): 34 ± 11.4 | Score by visual inspection of symptoms (average ± standard deviation, 5 pots) ([10]; 1000 g/ha (2.5 mg/ml, 400 L/ha), 15 DAT): 20 ± 15.8 | Score by visual inspection of symptoms (average ± standard deviation, 5 pots) ([10]; 1500 g/ha (3.75 mg/ml, 400 L/ha), 1 DAT): 38 ± 29.5 | Score by visual inspection of symptoms (average ± standard deviation, 5 pots) ([10]; 1500 g/ha (3.75 mg/ml, 400 L/ha), 3 DAT): 90 ± 9.4 | Score by visual inspection of symptoms (average ± standard deviation, 5 pots) ([10]; 1500 g/ha (3.75 mg/ml, 400 L/ha), 6 DAT): 87 ± 9.7 | Score by visual inspection of symptoms (average ± standard deviation, 5 pots) ([10]; 1500 g/ha (3.75 mg/ml, 400 L/ha), 8 DAT): 83 ± 14 | Score by visual inspection of symptoms (average ± standard deviation, 5 pots) ([10]; 1500 g/ha (3.75 mg/ml, 400 L/ha), 15 DAT): 66 ± 29.7 | Herbicidal activity score [11]: 40
